Measured values taken from publication PMC7898822, “RNA‐PROTACs: Degraders of RNA‐Binding Proteins” (Angewandte Chemie (International Ed. in English), 2020).
Like-named read-outs stand apart in the source and are kept apart here.

Experiments:
Lin28_ZKD [1] = biological target: T1, Lin28_ZKD (Homo sapiens, UniProt Q9H9Z2); assay: Fluorescence polarization competition assay (displacement of let7FAM from Lin28_ZKD); assay type: binding
T1 construct: construct encoding amino acids 124–186 of human Lin28; His6; made in house; host or cells: Escherichia coli BL21 (DE3) Codon+ (RIL)
T1 sequence (Q9H9Z2 124-186): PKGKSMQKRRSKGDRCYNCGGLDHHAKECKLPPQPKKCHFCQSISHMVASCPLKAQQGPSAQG
Experimental: Fluorescence Polarization Assay. Fluorescence polarization titration assay was carried out by titrating Lin28_ZKD protein into FAM-labeled PreE-let-7 at a 10 nM final concentration and buffer (10 mM HEPES, 150 mM NaCl, 10 µM ZiCl2, pH 7,4). The assay plate was briefly vortexed, and air bubbles were removed by spinning at 1000 rpm. The fluorescence anisotropy was measured on a Spectra Max Paradigm multimode plate reader (Molecular Devices). The fluorescence polarization competition […]
preE-let-7. The concentration of Lin28_ ZKD is kept at 40 nM, a value in the range of the dissociation constant of Lin28_ZKD and preE-let-7 determined through fluorescence polarization titration assay, whereas preE-let-7 concentration is kept constant at 10 nM. FP competitive binding assays were performed on 384-well plates (#3575, Corning) with a total well volume of 10 µL.
Fluorescence polarization readings were transferred into Prism 7.0 (GraphPad). All fluorescence polarization assays were repeated at least three times and the anisotropy values fitted using GraphPad Prism software using 1:1 binding/inhibition model. […]

Lin28A = assay: Western blot of Lin28A in K562 cells; assay type: cell-based, human; conditions: K562 cells, 48 h, western blot; three independent experiments
Excerpt: Finally, we tested RNA‐PROTACs for their ability to degrade their target in two cell lines: the embryonic NT2/D1 cell line, which expresses high levels of Lin28A, ^[13a] and K562 cells which express Lin28A and Lin28B. […] Finally, we co‐treated K562 cells with ORN3P1 and MG132, a reversible inhibitor of the 26S proteasome. […] In order to explore the versatility of RNA‐PROTACs with non peptide‐based VHL ligands, we conjugated small‐molecule VH032 ^[38] to ORN3 via an amino linker to yield ORN3VH032 (Figure S1). […]

Lin28_ZKD [2] = biological target: T1, Lin28_ZKD; assay: NMR 1H-15N HSQC titration of Lin28_ZKD; assay type: binding; conditions: 10 mM HEPES pH 7.0, 303K
Excerpt: The oligonucleotide element of an RNA‐PROTAC binds its target RBP via interactions at the riboses and the backbone, as well as the nucleobases. […] Thus, we used the same method to examine how various ribose modifications of L28RBE (Table 1, Figure S1) might affect binding of an RNA‐PROTAC to Lin28_ZKD.

K562 cells = assay: Intracellular uptake of FAM-labelled oligonucleotides, fluorescence microscopy; assay type: cell-based, human; conditions: FAM-conjugated, 1 µM, 24 h

**Q.** Which IC50 (Lin28_ZKD [1]) does the source give for `CC[C@H](C)[C@H](NC(=O)[C@H](Cc1ccc(O)cc1)NC(=O)[C@@H]1C[C@@H](O)CN1C(=O)[C@H](C)NC(=O)[C@H](CC(C)C)NC(=O)CCCCCNC(=O)[C@@H](N)CSC1CC(=O)N(CCOP(=O)(S)OC[C@H]2O[C@@H](n3cnc4c(N)ncnc43)[C@H](OC)[C@@H]2OP(=O)(S)OC[C@H]2O[C@@H](n3cnc4c(=O)[nH]c(N)nc43)[C@H](OC)[C@@H]2OP(=O)(S)OC[C@H]2O[C@@H](n3cnc4c(=O)[nH]c(N)nc43)[C@H](OC)[C@@H]2OP(=O)(S)OC[C@H]2O[C@@H](n3cnc4c(N)ncnc43)[C@H](OC)[C@@H]2OP(=O)(S)OC[C@H]2O[C@@H](n3cnc4c(=O)[nH]c(N)nc43)[C@H](OC)[C@@H]2OP(=O)(S)OC[C@H]2O[C@@H](n3cnc4c(N)ncnc43)[C@H](OC)[C@@H]2OP(=O)(S)OC[C@H]2O[C@@H](n3ccc(=O)[nH]c3=O)[C@H](OC)[C@@H]2O)C1=O)C(=O)O` (stereo partly drawn) [ORN4P1] here?
**A.** 208 ± 27.4 nM

**Q.** Which IC50 (Lin28_ZKD [1]) does the source give for `CCCC[C@H](NC(=O)[C@H](C)NC(=O)[C@H](CC(C)C)NC(=O)CCCCCNC(=O)[C@@H](N)CSC1CC(=O)N(CCOP(=O)(S)OC[C@H]2O[C@@H](n3cnc4c(N)ncnc43)[C@H](OC)[C@@H]2OP(=O)(S)OC[C@H]2O[C@@H](n3cnc4c(=O)[nH]c(N)nc43)[C@H](OC)[C@@H]2OP(=O)(S)OC[C@H]2O[C@@H](n3cnc4c(=O)[nH]c(N)nc43)[C@H](OC)[C@@H]2OP(=O)(S)OC[C@H]2O[C@@H](n3cnc4c(N)ncnc43)[C@H](OC)[C@@H]2OP(=O)(S)OC[C@H]2O[C@@H](n3cnc4c(=O)[nH]c(N)nc43)[C@H](OC)[C@@H]2OP(=O)(S)OC[C@H]2O[C@@H](n3cnc4c(N)ncnc43)[C@H](OC)[C@@H]2OP(=O)(S)OC[C@H]2O[C@@H](n3ccc(=O)[nH]c3=O)[C@H](OC)[C@@H]2O)C1=O)C(=O)N[C@@H](Cc1ccc(O)cc1)C(=O)N[C@H](C(=O)O)[C@@H](C)CC` (stereo partly drawn) [ORN4Pcon] here?
**A.** 206 ± 2.1 nM

**Q.** With `CC[C@H](C)[C@H](NC(=O)[C@H](Cc1ccc(O)cc1)NC(=O)[C@@H]1C[C@@H](O)CN1C(=O)[C@H](C)NC(=O)[C@H](CC(C)C)NC(=O)CCCCCNC(=O)[C@@H](N)CSC1CC(=O)N(CCOP(=O)(S)OC[C@H]2O[C@@H](n3cc(C)c(=O)[nH]c3=O)[C@H](OCCOC)[C@@H]2OP(=O)(S)OC[C@H]2O[C@@H](n3cc(C)c(=O)[nH]c3=O)[C@H](OCCOC)[C@@H]2OP(=O)(S)OC[C@H]2O[C@@H](n3cc(C)c(=O)[nH]c3=O)[C@H](OCCOC)[C@@H]2OP(=O)(S)OC[C@H]2O[C@@H](n3cnc4c(N)ncnc43)[C@H](OCCOC)[C@@H]2OP(=O)(S)OC[C@H]2O[C@@H](n3cc(C)c(=O)[nH]c3=O)[C@H](OCCOC)[C@@H]2OP(=O)(S)OC[C@H]2O[C@@H](n3cc(C)c(=O)[nH]c3=O)[C@H](OCCOC)[C@@H]2OP(=O)(S)OC[C@H]2O[C@@H](n3cnc4c(=O)[nH]c(N)nc43)[C@H](OCCOC)[C@@H]2O)C1=O)C(=O)O` (stereo partly drawn) [ORN5P1] as the compound, how does the “activity in FP competition assay (in words)” value (Lin28_ZKD [1]; displacement of let7FAM from Lin28_ZKD) read?
**A.** weak effect on Lin28_ZKD

**Q.** What about the “Lin28A suppression (in words)” value (Lin28A) of the same compound?
**A.** inactive

**Q.** With “ORN7: AGGAGAUAACU, PS-MOE (all 2'-MOE, all phosphorothioate, methylation of C and T or U not given here; further chemistry not fully specified)” as the compound, how does the IC50 (Lin28_ZKD [1]; Table 1, 40 nM Lin28_ZKD, 10 nM FAM-preE-let-7, 10 mM HEPES, 150 mM NaCl, pH 7.4, 30 min at 25 °C, 384-well, repeated at least three times, read-out: IC 50 determined by fluorescence polarization) read?
**A.** 162 ± 38 nM

**Q.** And the “NMR chemical shift perturbation / signal change of Lin28_ZKD” value (Lin28_ZKD [2]; 1H-15N HSQC, 1:1 ratio)?
**A.** some of the NMR signals broadened or disappeared

**Q.** And the “precipitation with Lin28_ZKD in NMR titration” value (Lin28_ZKD [2]; at higher concentrations)?
**A.** precipitation at higher concentrations was also observed

**Q.** What about the intracellular localization (K562 cells) of the same compound?
**A.** visible in the cytosol and the nuclei of cells

**Q.** And the relative uptake (K562 cells; compared with ORN3)?
**A.** higher than that of ORN3
